Experimental data from US20070179060A1, “6-(Poly-substituted aryl)-4-aminopicolinates and their use as herbicides” (priority 2006, published 2007).

Assays:
Assay in all cases: Postemergence herbicidal safening in cereal crops
Assay type in all cases: in vivo
Conditions in all cases: Table 5, applied alone, after 3 weeks
[1] = test system: Triticum aestivum (spring wheat)
Description: (§1) Seeds of the desired test plant species were planted in Sun Gro MetroMix® 306 planting mixture, which typically has a pH of 6.0 to 6.8 and an organic matter content of about 30 percent, in plastic pots with a surface area of 103.2 square centimeters. When required to ensure good germination and healthy plants, a fungicide treatment and/or other chemical or physical treatment was applied. The plants were grown for 7-36 days in a greenhouse with an approximate 14 hour photoperiod which was maintained at about 18° C. during the day and 17° C. during the night. Nutrients and water were added on a regular basis and supplemental lighting was provided with overhead metal halide 1000-Watt lamps as necessary. The plants were employed for testing when they reached the second or third true leaf stage. Treatments consisted of compound 42 and cloquintocet-mexyl alone and in combination. Weighed amounts were placed in 25 mL glass vials and dissolved in a volume of 97:3 v/v acetone/DMSO to obtain 9 mg ai/mL stock solutions. […] A dilution solution was prepared by mixing 1 volume of 97:3 v/v acetone/DMSO and 2 volumes of an aqueous mixture containing acetone, water, isopropyl alcohol, DMSO, Agri-dex crop oil concentrate, and Triton® X-77 surfactant in a 64.7:26.0:6.7:2.0:0.7:0.01 v/v ratio. Compound requirements are based upon a 12 mL application volume at a rate of 187 L/ha. […] Formulated compounds were applied to the plant material with an overhead Mandel track sprayer equipped with a […] nozzles calibrated to deliver 187 L/ha over an application area of 0.503 square meters at a spray height of 18 inches (43 cm) above average plant canopy height. Control plants were sprayed in the same manner with the solvent blank. The treated plants and control plants were placed in a greenhouse as described above and watered by sub-irrigation to prevent wash-off of the test compounds. After 3 weeks the condition of the test plants as compared with that of the untreated plants was determined visually and scored on a scale of 0 to 100 percent where 0 corresponds to no injury and 100 corresponds to complete kill. Colby's equation was used to determine the herbicidal effects expected from the mixtures (Colby, S. R. 1967. Calculation of the synergistic and antagonistic response of herbicide combinations. Weeds 15:20-22.). The following equation was used to calculate the expected activity of mixtures containing two active ingredients, A and B: Expected=A+B-(A×B/100) • A=observed efficacy of active ingredient A at the same concentration as used in the mixture. • B=observed efficacy of active ingredient B at the same concentration as used in the mixture.

Papaver rhoeas = test system: Papaver rhoeas
Description: as §1

[2] = test system: Hordeum vulgare (winter barley)
Description: as §1

Galium aparine = test system: Galium aparine
Description: as §1

CCCCCC(C)OC(=O)COc1ccc(Cl)c2cccnc12 (stereo not shown) [Cloquintocetmexyl, cloquintocet-mexyl]
0%: % Control TRZAS Ob ([1]; 35 g ai/ha) | % Control TRZAS Ob ([1]; 70 g ai/ha) | % Control TRZAS Ob ([1]; 140 g ai/ha) | % Control TRZAS Ob ([1]; 280 g ai/ha) | % Control PAPRH Ob (Papaver rhoeas; 35 g ai/ha) | % Control PAPRH Ob (Papaver rhoeas; 70 g ai/ha) | % Control PAPRH Ob (Papaver rhoeas; 140 g ai/ha) | % Control PAPRH Ob (Papaver rhoeas; 280 g ai/ha) | % Control HORVW Ob ([2]; 35 g ai/ha) | % Control HORVW Ob ([2]; 70 g ai/ha) | % Control HORVW Ob ([2]; 140 g ai/ha) | % Control HORVW Ob ([2]; 280 g ai/ha) | % Control GALAP Ob (Galium aparine; 35 g ai/ha) | % Control GALAP Ob (Galium aparine; 70 g ai/ha) | % Control GALAP Ob (Galium aparine; 140 g ai/ha) | % Control GALAP Ob (Galium aparine; 280 g ai/ha)
